What was measured:
[1] = system: transgenic C. elegans (tgMOR) that express mammalian MOR; conditions: in vivo
Gpr139−/− mice [2] = experiment: Conditioned place preference paradigm; type: in vivo; conditions: Gpr139−/− mice vs wild-type
Gpr139−/− mice [3] = conditions: Gpr139−/− mice vs wild-type, multiple drug doses

`CN1CC[C@]23c4c5ccc(O)c4O[C@H]2[C@@H](O)C=C[C@H]3[C@H]1C5` [morphine] was tested, and the “time to maximum paralysis and recovery” value [1] was “reached maximum paralysis and recovered more quickly”, the rewarding effects (Gpr139−/− mice [2]) was “substantially augmented responses” and the “analgesia, maximal response and duration of effect” value (Gpr139−/− mice [3]) was “significantly increased morphine analgesia”.

From patent US12303511B2 (priority 2018, dated 2025)
